Experimental data as given in ChEMBL document CHEMBL1158057, “Hydroxylated gedunin derivatives from Cedrela sinensis” (J Nat Prod, 2006).
≈ marks a conversion by molar mass, not a printed value.

System: P388
Assay: Cytotoxicity against mouse P388 cells
Type: functional, cell-based

CC(=O)O[C@H]1C[C@@]2(C)[C@H](c3ccoc3)OC(=O)[C@H]3O[C@]32[C@@]2(C)[C@H]1[C@@]1(C)C=CC(=O)C(C)(C)[C@@H]1C[C@H]2OC(C)=O
IC50: 3.8 µg/mL (≈ 7.03 µM)

CC(=O)O[C@@H]1C[C@H]2C(C)(C)C(=O)C=C[C@]2(C)[C@H]2[C@@H](O)C[C@@]3(C)[C@H](c4ccoc4)OC(=O)[C@H]4O[C@]43[C@@]21C
IC50: 5.4 µg/mL (≈ 10.8 µM)

CC1(C)C(=O)C=C[C@]2(C)[C@H]3[C@@H](O)C[C@@]4(C)[C@H](c5ccoc5)OC(=O)[C@H]5O[C@]54[C@]3(C)[C@H](O)C[C@@H]12
IC50: 7.8 µg/mL (≈ 17.1 µM)

CC(=O)O[C@@H]1C[C@H]2C(C)(C)C(=O)C=C[C@]2(C)[C@H]2[C@H](O)C[C@@]3(C)[C@H](c4ccoc4)OC(=O)[C@H]4O[C@]43[C@@]21C
IC50: 71 µg/mL (≈ 142 µM)

CC(=O)O[C@@H]1C[C@@]2(C)[C@H](c3ccoc3)OC(=O)[C@H]3O[C@]32[C@@]2(C)[C@H]1[C@@]1(C)C=CC(=O)C(C)(C)[C@@H]1C[C@H]2OC(C)=O
IC50: 63 µg/mL (≈ 117 µM)

CC1(C)C(=O)C=C[C@]2(C)[C@H]3[C@H](O)C[C@@]4(C)[C@H](c5ccoc5)OC(=O)[C@H]5O[C@]54[C@]3(C)[C@H](O)C[C@@H]12
IC50: > 100 µg/mL

CC(=O)O[C@@H]1C[C@H]2C(C)(C)C(=O)C=C[C@]2(C)[C@H]2C(=O)C[C@@]3(C)[C@H](c4ccoc4)OC(=O)[C@H]4O[C@]43[C@@]21C
IC50: 3 µg/mL (≈ 6.04 µM)

CC1(C)C(=O)C=C[C@]2(C)[C@H]3CC[C@@]4(C)[C@H](c5ccoc5)OC(=O)[C@H]5O[C@]54[C@]3(C)[C@H](O)C[C@@H]12 [DEACETYLGEDUNIN]
IC50: 4.5 µg/mL (≈ 10.2 µM)

CC(=O)O[C@@H]1C[C@H]2C(C)(C)C(=O)C=C[C@]2(C)[C@H]2CC[C@@]3(C)[C@H](c4ccoc4)OC(=O)[C@H]4O[C@]43[C@@]21C [GEDUNIN]
IC50: 3.3 µg/mL (≈ 6.84 µM)
